The target of assay [1] is Rat striatum MAOB (Rattus norvegicus (Rat), UniProt P19643). Description: Activity for inhibiting monoamine oxidase B (MAOB). Format: biochemical. On the procedure: MAOB is an enzyme involved in oxidative de-amino acid reaction of an endogenous monoamine neurotransmitter such as dopamine. […] The effect of the present compounds for inhibiting MAOB in rat striatum and simian striatum was tested.
Mitochondria⋅synaptosome fraction containing MAOB was prepared according to the following procedure. To striata of male Slc: Wistar rat (Japan SLC, Inc.) or male cynomolgus monkey (HAMRI CO., LTD.) was added 0.32 mol/L aqueous sucrose by 10 mL per 1 gram as wet weight of the tissue, and the mixture was homogenized. The homogenate was centrifuged at 4° C. at 1,000 g for 10 minutes, and the obtained supernatant was centrifuged again at 4° C. at 17,200 g for 20 minutes. To the obtained precipitate was added a prepared buffer solution (10 mmol/L Tris-HCl buffer solution (pH 7.4), 0.25 mol/L aqueous sucrose, 0.5 mmol/L EDTA-2K) by 10 mL per 1 gram as wet weight of the original tissue, and the mixture was centrifuged again at 4° C. at 17,200 g for 20 minutes. To the obtained precipitate was added the prepared buffer solution by 40 mL per 1 gram as wet weight of the original tissue. The mixture was suspended to be used as an enzyme homogenate solution.
As a substance to be degraded by MAOB, ^14C-labeled β-phenylethylamine ([^14C] β-PEA) was used. [^14C] β-PEA and the present compound solution diluted to each concentration were incubated with the enzyme homogenate solution at 37° C. for a given period, and then the reaction was stopped by adding 3 mol/L cold HCl thereto. The reaction product was extracted with a mixture of water-saturated toluene and ethyl acetate (1:1). The supernatant organic layer was separated, a liquid scintillation cocktail (ACSII, GE Healthcare) was added to the separated organic layer, and the radioactivity was measured with a liquid scintillation counter (TRI-CARB 3100TR, Packard). The IC50 value of each compound was determined based on two parameter logistic model with the inhibitory data of each concentration, said data were obtained from plural trials.

The subject of assay [2] is unilateral lesion model of nigrostriatal dopamine neuron induced with 6-OHDA. The experiment in a line: Extending duration of levodopa-induced rotational behavior in 6-OHDA unilateral lesion model. Format: in vivo, rat. The conditions noted are these: Examples 10 or 30 mg/kg oral; rasagiline 0.6 mg/kg; with levodopa 5 mg/kg i.p.
For assay [3], the target named is human Cav3.1 (Homo sapiens (Human), UniProt O43497). Description: T-type calcium channel inhibitory activity, whole-cell patch-clamp with HEK293 cell. The conditions noted are these: for inhibition at 600 µM: HEK293, 600 μmol/L, read-out: Cav3.1 % inhibitory rate; for IC50: dose-reactive test, read-out: Cav3.1 IC50 (parenthesized). Format: cell-based. On the procedure:
(§1) The inhibitory activity of the present compounds for T-type calcium channel was measured by whole-cell patch-clamp method with HEK293 cell (vendor of HEK 293 cell: ATCC, Manassas, Va., USA, builder of expressing cell: ChanTest Corporation., Cleveland, Ohio, USA), in which human Cav3.1, human Cav3.2, or human Cav3.3 is expressed. The culture medium used for HEK293 cell was prepared by adding fetal bovine serum (10%), sodium penicillin G (100 U/mL), streptomycin sulfate (100 μg/mL), and G418 (500 μg/mL) to a mixture medium of Dulbecco's modified Eagle's medium/Ham's F-12 medium. The whole-cell current was evaluated with IonWorks Barracuda system and Population Patch Clamp (both are provided by Molecular Device Corporation, Union City, Calif., USA). The extracellular recording solution used during the recording was Hanks' balanced salt solution. The internal recording solution used herein was 50 mmol/L CsCl, 90 mmol/L CsF, 5 mmol/L MgCl2, 1 mmol/L glycol ether diamine tetraacetic acid (EGTA), and 10 mmol/L 4-(2-hydroxyethyl)piperazine-1-ethanesulfonic acid (HEPES (pH 7.2). The holding voltage was held at −90 mV, then changed to −65 mV. 60 seconds later, −20 mV pulse was added thereto for 200 millisecond to activate the channel on plasma membrane and generate calcium current. The calcium current was recorded with an amplifier of IonWorks Barracuda system, and analyzed with a program of the system (Version 2.0.2). The record of the calcium current was obtained twice, before and after the addition of the compound. In the measurement after adding the compound, the cells were exposed to the recording solution containing the compound for more than 5 minutes and then the current was measured. In the analyses, the ratio of current readout after the compound addition per current readout before the compound addition was calculated, the calculated value was subtracted from one, and the obtained value was converted to percentage. […] The value obtained from each compound was canonicalized based on the two ends of values to obtain each inhibitory rate. The positive control compound used herein was TTA-A2 which is known as T-type calcium channel inhibitor. IC50 value was calculated with Hill equation.
(§2) Each inhibitory rate (%) against T-type calcium channel at the evaluation concentration of the present compound (600 μmol/L) is shown in Table 12, in which the parenthesized values are IC50 values (μmol/L)) calculated from the dose-reactive test.
(In patch-clamp work, channel activity is measured electrically.)

The target of assay [4] is human Cav3.3 (Homo sapiens (Human), UniProt Q9P0X4). The description is as above. In kind it is cell-based. The conditions noted are these: for inhibition at 600 µM: HEK293, 600 μmol/L, read-out: Cav3.3 % inhibitory rate; for IC50: dose-reactive test, read-out: Cav3.3 IC50 (parenthesized). On the procedure: as §1, §2
The target of assay [5] is human Cav3.2 (Homo sapiens (Human), UniProt O95180). The assay is described as above. Format: cell-based. The conditions noted are these: for inhibition at 600 µM: HEK293, 600 μmol/L, read-out: Cav3.2 % inhibitory rate; for IC50: dose-reactive test, read-out: Cav3.2 IC50 (parenthesized). On the procedure:
as §1, §2

In assay [6] the target is human CA-II (Homo sapiens (Human), UniProt P00918). Description: Activity for inhibiting carbonic anhydrase (CA). Format: biochemical. The conditions noted are these: 4-nitrophenyl acetate substrate. On the procedure:
CA is a zinc metalloenzyme family which catalyzes reversible hydration between carbon dioxide, and bicarbonate and proton.
As a substance for decomposition by CA-II, 4-nitrophenyl acetate was used herein. 4-Nitrophenyl acetate is […] with CA-II to produce 4-nitrophenol. […] To the diluted solution were added […] (final concentration: 5 mmol/L) and the present compound of each concentration, and the mixture was incubated at 37° C. under shading for 30 minutes. […] The IC50 of the compound was obtained through the two-parameter logistic model with the inhibitory rate data in each concentration which was obtained from plural trials.

For assay [7], the system named is reserpine-induced Parkinson's disease model mouse. The experiment in a line: Potentiating effect of levodopa-induced hyperactivity in reserpine-induced Parkinson's disease model mouse. The conditions noted are these: Examples 12.5 or 25 mg/kg oral; rasagiline 3 or 10 mg/kg; with levodopa 200 mg/kg i.p. In kind it is in vivo. On the procedure: Dopamine-depleted mice due to reserpine treatment are model mice of akinesia symptoms in Parkinson's disease, said symptoms are relieved with levodopa (L-DOPA). The effect of the present compounds for potentiating the levodopa's effect was tested.
In the present test, male Crl: CD1 (ICR) mice (CHARLES RIVER LABORATORIES JAPAN, INC.) were used. 20-24 hours before starting the movement measurement, reserpine (3 mg/kg) was intraperitoneally administered to the mouse. One hour before starting the movement measurement, the present compound (12-.5 mg/kg or 25 mg/kg of. Examples 1, 2, 3, 4, and 5) was orally administered to the mouse. Shortly before starting the movement measurement, levodopa (200 mg/kg) with benserazide whose amount was ¼ of levodopa in free form was intraperitoneally administered to the mouse. The movement measurement was carried out for 90 minutes, and each total movement was compared.

The mark [8] stands for this setting: [14C] β-PEA substrate, read-out: Rat striatum MAOB IC50.

This note sets out measurements from US11535599B2, “Benzisoxazole derivative” (Sumitomo Pharma Co., Ltd., priority 2020, dated 2022).

Read-outs that look alike come from different tables or passages of the source.

Chain of Rat striatum MAOB (P19643 whole entry): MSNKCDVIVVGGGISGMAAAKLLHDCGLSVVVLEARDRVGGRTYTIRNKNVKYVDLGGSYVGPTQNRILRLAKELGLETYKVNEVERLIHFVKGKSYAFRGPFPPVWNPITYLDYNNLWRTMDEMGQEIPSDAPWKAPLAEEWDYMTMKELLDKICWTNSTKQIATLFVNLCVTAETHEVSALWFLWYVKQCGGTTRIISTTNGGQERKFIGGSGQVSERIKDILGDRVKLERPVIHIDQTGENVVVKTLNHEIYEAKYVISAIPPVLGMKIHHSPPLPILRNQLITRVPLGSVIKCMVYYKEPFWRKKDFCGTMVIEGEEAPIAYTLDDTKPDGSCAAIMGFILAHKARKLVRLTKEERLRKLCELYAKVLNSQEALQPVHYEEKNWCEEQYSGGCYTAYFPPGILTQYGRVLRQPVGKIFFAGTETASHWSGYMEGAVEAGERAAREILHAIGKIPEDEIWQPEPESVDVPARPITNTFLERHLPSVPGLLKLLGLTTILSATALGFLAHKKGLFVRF
Chain of human Cav3.3 (Q9P0X4 whole entry): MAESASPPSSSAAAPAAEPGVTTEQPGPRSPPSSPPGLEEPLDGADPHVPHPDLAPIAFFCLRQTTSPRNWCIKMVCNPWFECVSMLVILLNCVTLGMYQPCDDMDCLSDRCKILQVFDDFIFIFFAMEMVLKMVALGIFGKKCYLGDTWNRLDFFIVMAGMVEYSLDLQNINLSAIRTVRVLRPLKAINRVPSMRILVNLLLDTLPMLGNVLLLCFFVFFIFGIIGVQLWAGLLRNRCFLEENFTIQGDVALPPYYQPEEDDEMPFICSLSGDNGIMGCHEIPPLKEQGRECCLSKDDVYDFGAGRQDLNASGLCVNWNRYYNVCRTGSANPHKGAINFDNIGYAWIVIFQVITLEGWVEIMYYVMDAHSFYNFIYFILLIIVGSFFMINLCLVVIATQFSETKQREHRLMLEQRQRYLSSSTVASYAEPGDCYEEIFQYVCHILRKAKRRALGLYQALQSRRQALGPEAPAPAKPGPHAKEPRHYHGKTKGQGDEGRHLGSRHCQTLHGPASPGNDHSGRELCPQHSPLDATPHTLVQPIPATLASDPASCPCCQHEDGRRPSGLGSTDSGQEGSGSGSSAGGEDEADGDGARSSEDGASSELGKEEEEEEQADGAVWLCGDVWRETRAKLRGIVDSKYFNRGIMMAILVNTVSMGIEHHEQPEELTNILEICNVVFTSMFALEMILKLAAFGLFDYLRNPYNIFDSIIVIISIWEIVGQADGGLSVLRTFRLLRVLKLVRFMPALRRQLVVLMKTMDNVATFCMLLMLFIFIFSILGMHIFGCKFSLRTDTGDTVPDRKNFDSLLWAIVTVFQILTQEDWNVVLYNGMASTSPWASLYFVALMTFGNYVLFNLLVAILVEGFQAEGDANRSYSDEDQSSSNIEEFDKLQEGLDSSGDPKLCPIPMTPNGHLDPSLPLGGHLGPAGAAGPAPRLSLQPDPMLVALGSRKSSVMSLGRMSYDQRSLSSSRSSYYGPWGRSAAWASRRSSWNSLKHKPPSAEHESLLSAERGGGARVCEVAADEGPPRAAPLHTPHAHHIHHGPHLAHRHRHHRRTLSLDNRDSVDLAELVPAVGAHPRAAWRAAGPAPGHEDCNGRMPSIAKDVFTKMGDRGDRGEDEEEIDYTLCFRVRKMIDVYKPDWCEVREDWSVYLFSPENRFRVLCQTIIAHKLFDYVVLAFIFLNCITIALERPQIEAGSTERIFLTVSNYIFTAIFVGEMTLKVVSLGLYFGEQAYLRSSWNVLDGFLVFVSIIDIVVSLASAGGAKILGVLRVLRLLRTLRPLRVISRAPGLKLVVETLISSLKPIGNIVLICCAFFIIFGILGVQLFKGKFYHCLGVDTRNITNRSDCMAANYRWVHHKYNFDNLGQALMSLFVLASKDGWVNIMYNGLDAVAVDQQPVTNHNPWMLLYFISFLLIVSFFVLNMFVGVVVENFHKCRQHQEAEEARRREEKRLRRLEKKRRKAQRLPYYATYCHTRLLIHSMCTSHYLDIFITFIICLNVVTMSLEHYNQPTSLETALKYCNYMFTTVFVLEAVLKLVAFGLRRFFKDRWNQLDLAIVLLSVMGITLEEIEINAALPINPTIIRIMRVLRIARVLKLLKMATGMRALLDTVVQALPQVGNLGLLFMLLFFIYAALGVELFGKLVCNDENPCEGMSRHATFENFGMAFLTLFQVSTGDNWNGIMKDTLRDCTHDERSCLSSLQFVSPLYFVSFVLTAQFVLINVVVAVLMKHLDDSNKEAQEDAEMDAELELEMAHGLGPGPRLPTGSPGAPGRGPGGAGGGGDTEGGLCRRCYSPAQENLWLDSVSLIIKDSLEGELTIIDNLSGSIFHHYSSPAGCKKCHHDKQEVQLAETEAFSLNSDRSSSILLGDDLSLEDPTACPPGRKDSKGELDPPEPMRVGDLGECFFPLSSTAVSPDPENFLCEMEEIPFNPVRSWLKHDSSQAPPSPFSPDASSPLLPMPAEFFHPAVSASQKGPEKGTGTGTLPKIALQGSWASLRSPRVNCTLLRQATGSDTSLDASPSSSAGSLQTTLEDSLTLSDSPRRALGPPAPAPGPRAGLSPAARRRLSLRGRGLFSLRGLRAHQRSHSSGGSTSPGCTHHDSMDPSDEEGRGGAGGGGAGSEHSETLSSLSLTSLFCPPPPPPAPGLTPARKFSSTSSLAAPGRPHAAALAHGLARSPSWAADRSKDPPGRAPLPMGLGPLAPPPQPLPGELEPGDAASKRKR
Chain of human Cav3.1 (O43497 whole entry): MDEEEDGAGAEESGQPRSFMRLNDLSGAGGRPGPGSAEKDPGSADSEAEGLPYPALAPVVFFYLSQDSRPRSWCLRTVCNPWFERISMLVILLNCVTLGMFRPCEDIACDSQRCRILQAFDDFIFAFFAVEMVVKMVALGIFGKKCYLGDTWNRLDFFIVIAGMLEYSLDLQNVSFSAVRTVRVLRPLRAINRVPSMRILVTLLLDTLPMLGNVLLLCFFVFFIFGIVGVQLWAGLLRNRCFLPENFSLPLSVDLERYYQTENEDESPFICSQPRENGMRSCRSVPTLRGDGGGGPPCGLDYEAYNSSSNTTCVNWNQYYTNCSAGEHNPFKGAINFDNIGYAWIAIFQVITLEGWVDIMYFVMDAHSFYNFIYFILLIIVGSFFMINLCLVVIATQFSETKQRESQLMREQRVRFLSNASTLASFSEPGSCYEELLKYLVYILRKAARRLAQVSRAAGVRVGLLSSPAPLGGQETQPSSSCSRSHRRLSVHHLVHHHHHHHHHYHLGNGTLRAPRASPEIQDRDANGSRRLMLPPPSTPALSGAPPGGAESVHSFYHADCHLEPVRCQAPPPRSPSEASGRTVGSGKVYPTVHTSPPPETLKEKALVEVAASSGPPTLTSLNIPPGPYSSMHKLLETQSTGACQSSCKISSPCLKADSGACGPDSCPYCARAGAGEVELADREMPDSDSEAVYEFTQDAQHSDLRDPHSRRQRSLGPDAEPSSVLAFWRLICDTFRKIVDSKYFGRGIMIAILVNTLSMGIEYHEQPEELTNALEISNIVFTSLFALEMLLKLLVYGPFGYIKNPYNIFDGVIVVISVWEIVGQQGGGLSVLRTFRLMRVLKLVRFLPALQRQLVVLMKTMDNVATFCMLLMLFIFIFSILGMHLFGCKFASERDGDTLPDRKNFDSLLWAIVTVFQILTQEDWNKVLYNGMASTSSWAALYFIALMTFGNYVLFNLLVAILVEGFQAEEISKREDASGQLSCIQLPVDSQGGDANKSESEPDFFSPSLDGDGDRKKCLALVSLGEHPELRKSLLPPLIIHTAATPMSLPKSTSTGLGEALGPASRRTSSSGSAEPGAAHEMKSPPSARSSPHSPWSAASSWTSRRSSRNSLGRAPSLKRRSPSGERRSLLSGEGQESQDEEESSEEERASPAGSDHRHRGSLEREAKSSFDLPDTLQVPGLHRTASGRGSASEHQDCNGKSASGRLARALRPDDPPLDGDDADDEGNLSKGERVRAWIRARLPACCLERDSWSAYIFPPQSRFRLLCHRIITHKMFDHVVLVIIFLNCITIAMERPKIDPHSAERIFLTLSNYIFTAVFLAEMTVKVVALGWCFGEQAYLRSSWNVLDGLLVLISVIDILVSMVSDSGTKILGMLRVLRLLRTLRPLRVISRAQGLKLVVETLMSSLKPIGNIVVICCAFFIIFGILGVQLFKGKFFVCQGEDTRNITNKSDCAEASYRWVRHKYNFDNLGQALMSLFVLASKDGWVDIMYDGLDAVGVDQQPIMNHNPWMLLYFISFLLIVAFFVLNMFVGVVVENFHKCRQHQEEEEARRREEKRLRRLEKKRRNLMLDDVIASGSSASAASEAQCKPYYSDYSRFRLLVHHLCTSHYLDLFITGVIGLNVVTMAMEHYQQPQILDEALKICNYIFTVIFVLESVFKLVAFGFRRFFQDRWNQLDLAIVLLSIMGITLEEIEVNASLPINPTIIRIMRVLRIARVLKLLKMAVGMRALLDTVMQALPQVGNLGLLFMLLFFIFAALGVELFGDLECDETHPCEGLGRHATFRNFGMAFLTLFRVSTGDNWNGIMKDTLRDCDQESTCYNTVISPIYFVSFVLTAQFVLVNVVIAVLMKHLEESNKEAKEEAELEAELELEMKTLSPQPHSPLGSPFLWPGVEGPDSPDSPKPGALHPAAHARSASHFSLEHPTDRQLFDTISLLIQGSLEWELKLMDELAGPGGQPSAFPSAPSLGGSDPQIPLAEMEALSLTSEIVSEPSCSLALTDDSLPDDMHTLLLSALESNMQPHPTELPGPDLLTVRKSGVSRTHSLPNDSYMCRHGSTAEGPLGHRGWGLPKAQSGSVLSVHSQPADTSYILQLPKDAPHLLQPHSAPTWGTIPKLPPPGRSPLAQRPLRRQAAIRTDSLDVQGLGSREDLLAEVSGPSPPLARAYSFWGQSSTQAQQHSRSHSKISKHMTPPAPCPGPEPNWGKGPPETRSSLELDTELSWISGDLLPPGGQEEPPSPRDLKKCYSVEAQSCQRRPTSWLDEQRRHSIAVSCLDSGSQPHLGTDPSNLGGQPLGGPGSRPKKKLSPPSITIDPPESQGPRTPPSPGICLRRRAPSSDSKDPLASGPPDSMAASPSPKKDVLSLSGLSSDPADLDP

A word on the IC50: it is the concentration that gives 50% inhibition. On to `CC(C)(c1noc2ccccc12)S(N)(=O)=O` [Example 2, 2-(1,2-benzoxazol-3-yl)propane-2-sulfonamide], for which the IC50 in assay [1] (setting [8]) is more than 600 µM; in assay [6] it was 79.2 µM. The “rotational number in the late phase (100-120 minutes)” value (“rotational number in the late phase” below) in assay [2] was “significantly increased the rotational number in the late phase”. The inhibition at 600 µM in assay [3] is 72.7%; in assay [4] it was 70%; in assay [5], 64%. For the same molecule, the “levodopa-induced hyperactivity (total movement, 90 minutes)” value (“levodopa-induced hyperactivity” for short) in assay [7] is listed as “significantly-potentiating effect of levodopa-induced hyperactivity”.
With `NS(=O)(=O)C(F)c1noc2ccccc12` (stereo not shown) [Example 3, 1-(1,2-benzoxazol-3-yl)-1-fluoromethane-sulfonamide], the IC50 is 101 µM in assay [1] (setting [8]); 325 µM in assay [3]; 440 µM in assay [4]; 362 µM in assay [5]; 0.084 µM in assay [6]. Further, the “rotational number in the late phase” value in assay [2] is recorded as “did not show statistically-significant increase, but showed a tendency to increase the rotational number in the late phase”. Besides, the inhibition at 600 µM in assay [3] was 69.9%; in assay [4] it was 61%; in assay [5] it was 64%. Further, the “levodopa-induced hyperactivity” value in assay [7] is “significantly-potentiating effect of levodopa-induced hyperactivity”.
On to `NS(=O)(=O)C(F)(F)c1noc2ccccc12` [Example 4, 1-(1,2-benzoxazol-3-yl)-1,1-difluoromethane-sulfonamide], for which the values for the IC50 in assay [1] (setting [8]) and in assay [6] were 389 µM and 0.023 µM, respectively. In assay [7], the “levodopa-induced hyperactivity” value was “significantly-potentiating effect of levodopa-induced hyperactivity”.
In the case of `NS(=O)(=O)C1(c2noc3ccccc23)CC1` [Example 5, 1-(1,2-benzoxazol-3-yl)cyclopropane-1-sulfonamide], the IC50 in assay [1] (setting [8]) was more than 600 µM; in assay [6] it was 5.2 µM. The “rotational number in the late phase” value in assay [2] is on record as “did not show statistically-significant increase, but showed a tendency to increase the rotational number in the late phase”. Also, the inhibition at 600 µM in assay [3] was found to be 64.5%; in assay [4], 55.6%; in assay [5] it was 54%. Further, in assay [7], the “levodopa-induced hyperactivity” value is listed as “significantly-potentiating effect of levodopa-induced hyperactivity”.
For `CCC(c1noc2ccccc12)S(N)(=O)=O` (stereo not shown) [Example 6, 1-(1,2-benzoxazol-3-yl)propane-1-sulfonamide], the IC50 is more than 600 µM in assay [1] (setting [8]) and 45.7 µM in assay [6]. The inhibition at 600 µM in assay [3] was 80.4%; in assay [4] it was 72.9%; in assay [5], 67.4%.
`CCCC(c1noc2ccccc12)S(N)(=O)=O` (stereo not shown) [Example 7, 1-(1,2-benzoxazol-3-yl)butane-1-sulfonamide]: the figures for the IC50 in assay [1] (setting [8]) and in assay [6] were more than 600 µM and 32.9 µM, respectively.
As to `CC(F)(c1noc2ccccc12)S(N)(=O)=O` (stereo not shown) [Example 8, 1-(1,2-benzoxazol-3-yl)-1-fluoroethane-1-sulfonamide], the IC50 in assay [1] (setting [8]) is more than 600 µM; in assay [3] it was 216 µM; in assay [4], 321 µM; in assay [5], 318 µM; in assay [6] it was 2.2 µM. In assay [2], the “rotational number in the late phase” value was “did not show statistically-significant increase, but showed a tendency to increase the rotational number in the late phase”. For the same molecule, the inhibition at 600 µM in assay [3] stood at 83.1%; in assay [4], 73%; in assay [5], 70.3%.
As for `CC(C)C(c1noc2ccccc12)S(N)(=O)=O` (stereo not shown) [Example 9, 1-(1,2-benzoxazol-3-yl)-2-methylpropane-1-sulfonamide], the inhibition at 600 µM in assay [3] stood at 96.5%; in assay [4] it was 94.3%; in assay [5] it was 96.9%.
For the molecule `COc1ccc2onc(C(C)S(N)(=O)=O)c2c1` (stereo not shown) [Example 10, 1-(5-methoxy-1,2-benzoxazol-3-yl)ethane-1-sulfonamide], the IC50 in assay [1] (setting [8]) was more than 600 µM. The inhibition at 600 µM in assay [3] was determined as 68.5%; in assay [4] it was 69.7%; in assay [5], 57.7%.
As for `CC(c1noc2ccc(F)cc12)S(N)(=O)=O` (stereo not shown) [Example 11, 1-(5-fluoro-1,2-benzoxazol-3-yl)ethane-1-sulfonamide], the IC50 in assay [1] (setting [8]) is more than 600 µM. Further, the values for the inhibition at 600 µM in assay [3], in assay [4] and in assay [5] were 56%, 54.3% and 50.8%, respectively.
In the case of `CC(c1noc2ccc(Cl)cc12)S(N)(=O)=O` (stereo not shown) [Example 12, 1-(5-chloro-1,2-benzoxazol-3-yl)ethane-1-sulfonamide], the IC50 in assay [1] (setting [8]) is 150 µM. For the same molecule, the inhibition at 600 µM is 95% in assay [3], 93% in assay [4] and 91.5% in assay [5].
`C[C@H](NCc1ccc(OCc2cccc(F)c2)cc1)C(N)=O` [safinamide, reference compound] displayed an IC50 in assay [1] (Rat striatum MAOB IC50, [14C] β-PEA substrate) of 0.193 µM. Moreover, the MAOB inhibitory action entry in assay [1] (rat striatum, in words) is listed as “strong MAOB inhibitory action”. For the same molecule, in assay [2], the “rotational number in the late phase” value is on record as “did not show statistically-significant increase, but showed a tendency to increase the rotational number in the late phase”.
